Assay results from patent US20090312414A1, “Treatment Of Lower Urinary Tract Dysfunction With CB2-Receptor-Selective Agonists” (priority 2008, published 2009).

Tests used:
[1] = test system: isolated detrusor from rats with partial urethral obstruction; assay: Nerve-induced contractions (electrical field stimulation) in bladder strips from PUO rats; type: ex vivo, rat; conditions: for Nerve-induced contractions: % of 60 mM K+ responses, preparations from treated PUO rats
Description: (§1) The effect of chronic treatment with the compound of Formula I was studied in contractility studies with isolated bladder strips from rats with PUO after 2 weeks of treatment with the compound of Formula I.
(§2) Bladder strips (2×2×6 mm) were dissected from PUO rat bladders. Silk ligatures were applied at both ends of the preparations which then were mounted on metal prongs in 5 ml aerated (95% O2 and 5% CO2) tissue baths (37° C.) containing Krebs solution. Mechanical activity was registered with Grass FT 03C force transducers connected to a Grass Polygraph model 7E. The preparations were stretched to a tension of approximately 10 mN and left to equilibrate for 45 minutes to attain a stable resting tonus. To establish the viability of the preparations and to determine a standard contractile level, preparations were exposed to a 60 mM K^+ Krebs solution. The effects of cumulative addition of carbachol, a non-selective muscarininc agonist (1 nM-0.1 mM), were studied in strip preparations from vehicle-treated and compound of Formula I-treated rats with PUO.
Transmural activation of nerves was performed with two platinum electrodes, placed in parallel to the sides of the strips in the organ baths. The nerves of the preparations were stimulated by means of a Grass S 48 stimulator, delivering single square-wave pulses at supramaximum voltage with duration of 0.5 ms. The polarity was changed after each pulse by means of a polarity-changing unit. The train duration was 5 seconds and the train interval 120 seconds. Frequency-response relationships were investigated at supramaximum voltage in all preparations stimulated electrically. […] All contractile responses were expressed as a percentage of the contraction elicited by 60 mM K^+ Krebs solution. Simultaneous curve fit analysis was performed using GraphPad Prism v4.0 to determine statistical significance for increased efficacy of the compound of Formula I treatment upon muscle strips. Briefly, dose-response curves were tested comparing a variable slope model vs. a fixed slope (m=1) model.

[2] = Actual solubility in aqueous buffers; type: physicochemical; conditions: aqueous buffer
Description: The actual solubility of certain compounds of the invention was assessed in aqueous buffers and final concentration of compounds was determined using HPLC and spectrophotometer methodologies.

[3] = test system: isolated detrusor from rats with partial urethral obstruction; assay: Carbachol-induced contractions in bladder strips from PUO rats; type: ex vivo, rat; conditions: strips from PUO rats treated for 2 weeks
Description: as §1, §2
Transmural activation of nerves was performed with two platinum electrodes, placed in parallel to the sides of the strips in the organ baths. […] All contractile responses were expressed as a percentage of the contraction elicited by 60 mM K^+ Krebs solution. […]

[4] = test system: conscious rats with partial urethral obstruction; assay: Cystometry in conscious rats with partial urethral obstruction (PUO); type: in vivo, rat; conditions: 3 mg/kg IP daily for 2 weeks
From the text: The effect of chronic treatment with the compound of Formula I on bladder function was studied by cystometry in conscious rats with partial urethral obstruction (“PUO”) after 2 weeks of treatment with the compound of Formula I. Protocols for animals and bladder catheter implantation were as in Example 4 above.
The bladder and urethra was exposed via a mid-line incision of the lower abdom. A 19 gauge needle (0.9 mm OD) was placed on the surface of the urethra, and a 3-0 black mono nylon suture was firmly tied over the urethra and the ligation was left in place for the duration of the study. The needle was then removed and the diameter and position of the ligature was then inspected to ensure that a partial urethral obstruction was obtained. The abdominal cavity was then closed in layers with single cross-sutures (5-0 black polyfilament nylon suture). Animals were then housed in individual cages for two weeks before cystometry were performed.
The appropriate solution of the compound of Formula I was prepared on the day of the experiment using PBS as the vehicle. A stock solution of 10 mg/ml in PBS was used and the animals were administered daily, weight-controlled doses of 3 mg/kg compound of Formula I or vehicle by intraperitoneal (“IP”) injection over the 2 week treatment period, starting on the day of PUO surgery.
Cystometry was performed without anesthesia three days after the implantation of bladder catheters in rats with PUO, and after two weeks of daily treatment with the compound of Formula I. The conscious rats were placed in metabolic cages without restraint and the bladder catheters were connected via a T-tube to a pressure transducer (P23 DC; Statham Instruments Inc., Oxnard, Calif.) and a microinjection pump (CMA 100; Carnegie Medicine AB, Solna, Sweden). Micturition volumes were recorded with a fluid collector connected to a force displacement transducer (FT 03 D, Grass Instrument Co., Quincy, Mass.). Room-temperature saline was infused into the bladder continuously at a rate of 10 ml/h. Bladder size increases several-fold in rats subjected to PUO. Therefore, an infusion rate of 20 ml/h was used during cystometry in these animals. Pressures and micturition volumes were recorded continuously with Acq Knowledge 3.8.1 software and a MP100 data acquisition system (Biopac Syst. Inc. Santa Barbara, Calif.) connected to a Grass polygraph (Model 7E, Grass Instrument Co). At the beginning of cystometry, the bladder was emptied via the bladder catheter.
The following urodynamic parameters were investigated: micturition pressure (“MP;” maximum bladder pressure during micturition), threshold pressure (“ThP”; bladder pressure at start of detrusor contraction), flow pressure (“FP”; bladder pressure when urethra opens), MI (time between two micturitions), micturition volume (“MV”; volume of the expelled urine), and RV (volume left in bladder after a micturition). At least a 30-minute period with stable and reproducible micturitions was recorded before drug administration and used as baseline value, to be compared with a corresponding stable 30-minute period after drug administration. For multiple comparisons, a one-way analysis of variance for repeated measures (Holm-Sidak) was used. Pairwise and non-pairwise comparisons were made by Student's t-test. All statistical calculations are based on the number of individual animals, and significant differences are accepted when p<0.05.
As used herein, the term “chronic” means that the animals were dosed once/day for 14 days, prior to taking the cystometry measurements. For specific investigation and analysis of NVCs, the PUO should beneficially be removed approximately 2-3 days prior to the urodynamic investigation. […]

## CCCCCCC(C)(C)c1cc(O)c([C@H]2CC(=O)[C@H]3C[C@@H]2C3(C)C)c(OC(=O)/C=C/C(=O)O)c1 [Formula I]
[1]; 1 Hz, bladders from PUO rats treated for 2 weeks
  Nerve-induced contractions vs untreated PUO rats: significantly larger contractions
[1]; 8 Hz, p<0.01
  Nerve-induced contractions: 83±14%
[1]; 16 Hz, p<0.005
  Nerve-induced contractions: 120±16%
[1]; 32 Hz, p<0.006
  Nerve-induced contractions: 146±16%
[2]
  solubility: > 10000 µg/mL
[3]; carbachol 1 nM to 1 μM
  Carbachol-induced detrusor contractions vs vehicle-treated PUO rats: no differences
[3]; simultaneous curve fitting, p<0.0008
  Maximal response to carbachol vs vehicle-treated PUO rats: significant increase
[4]; PUO rats
  Incidence of NVC: 20%
[4]; PUO rats, n=10, not significant
  Mean bladder weight: 0.88 ± 0.13 g
[4]; PUO rats, ns
  Micturition pressure (MP): 116.0±17.4 cmH2O
[4]; PUO rats, p<0.002
  Mean flow pressure (FP): 87.4±8.7 cmH2O
  Mean threshold pressure (ThP): 39.4±4.9 cmH2O
[4]; PUO rats, p<0.01
  Micturition interval (MI): 84 ± 10 s
[4]; PUO rats, p<0.02
  Micturition volume (MV): 0.43 ± 0.07 mL
  Residual volume (RV): 0.09 ± 0.05 mL
[4]; PUO rats, p<0.03
  Micturition frequency: 53±11 micturitions per hour
[4]; p<0.04
  PUO rats exhibiting non-voiding contractions (NVCs): 2 out of 10
